Data from patent publication US20210251218A1, “BIO-HERBICIDE BASED ON ESSENTIAL OIL” (Université de Liège, priority 2018, published 2021).

Tested on: Bryophyte (adult stage)
Test: Essay 1: post-emergence activity on Bryophyte
Format: in vivo
Details: spraying 100 ml/m^2; 7 days after treatment; score 0 = healthy plant, 6 = dead plant; FIG. 3
Procedure: In order to assess the post-emergence activity of compositions according to the invention on Bryophyte (adult stage), different compositions according to the invention (HE1 and HE2—see Table 3) were tested by spraying (100 ml/m^2) on Bryophytes (adult stage). Pelargonic acid at a concentration of 30 g/L (PA) (Compo®) was used as a positive control and a composition without the active substance (essential oil) (SSA) was also tested. [table] For Bryophytes, it is recognized that the score of 0 represents a healthy and undamaged plant while a score of 6 represents a dead plant. These scores were determined 7 days after treatment with the different compositions.

CCCCCCCCC(=O)O [pelargonic acid]
toxicity score: 6
